Experimental data taken from patent publication US8946426B2, “Substituted bicyclic heterocyclic compounds as gamma secretase modulators” (Janssen Pharmaceuticals, Inc., priority 2009, dated 2015).

Tests used:
Aβ42 [1] = experiment: Method 2: Aβ42 Alphalisa in supernatant of SKNBE2 cells carrying APP 695-wild type (Table 7c); type: cell-based; conditions: Method 2, Alphalisa, overnight incubation
In short: (§1)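 Secreted Aβ measured by AlphaLISA sandwich immunoassay after overnight compound exposure (37° C, 10^4 cells/well) of APP695-wild-type SKNBE2 cells. Aβtotal pairs antibodies JRF/AβN/25 and biotinylated 4G8; Aβ42 pairs JRF/cAβ42/26 and JRF/AβN/25. Values normalised to compound-free control and fitted with a four-parameter equation for IC50.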

Aβ42 [2] = experiment: In vivo efficacy: Aβ42 lowering in brain after single oral dose (Table 8); conditions: mouse brain soluble fraction, ELISA, compared to untreated animals
Source text: (§2) To determine whether acute administration of an Aβ42 lowering agent would reduce Aβ42 levels in vivo, non-transgenic rodents, e.g. mice or rats were used. Alternatively, two to three month old Tg2576 mice expressing APP695 containing the “Swedish” variant can be used or a transgenic mouse model developed by Dr. Fred Van Leuven (K.U.Leuven, Belgium) and co-workers, with neuron-specific expression of a clinical mutant of the human amyloid precursor protein [V7171] (Moechars et al., 1999 J. Biol. Chem. 274, 6483). Young transgenic mice have high levels of Aβ in the brain but no detectable Aβ deposition. At approximately 6-8 months of age, the transgenic mice start to display spontaneous, progressive accumulation of β-amyloid (Aβ) in the brain, eventually resulting in amyloid plaques within the subiculum, hippocampus and cortex. Animals treated with the Aβ42 lowering agent were examined and compared to those untreated or treated with vehicle and brain levels of soluble Aβ42 and total Aβ would be quantitated by standard techniques, for example, using ELISA. Treatment periods varied from hours to days and were adjusted based on the results of the Aβ42 lowering once a time course of onset of effect could be established.
(§3) A typical protocol for measuring Aβ42 lowering in vivo is shown but it is only one of many variations that could be used to optimize the levels of detectable Aβ. For example, Aβ42 lowering compounds were formulated in 20% of Captisol® (a sulfobutyl ether of β-cyclodextrin) in water or 20% hydroxypropyl β cyclodextrin. The Aβ42 lowering agents were administered as a single oral dose or by any acceptable route of administration to overnight fasted animals. After four hours, the animals were sacrificed and Aβ42 levels were analysed.
(§4) Blood was collected by decapitation and exsanguinations in EDTA-treated collection tubes. Blood was centrifuged at 1900 g for 10 min at 4° C. and the plasma recovered and flash frozen for later analysis. The brain was removed from the cranium and hindbrain. The cerebellum was removed and the left and right hemisphere were separated. The left hemisphere was stored at −18° C. for quantitative analysis of test compound levels. The right hemisphere was rinsed with phosphate-buffered saline (PBS) buffer and immediately frozen on dry ice and stored at −80° C. until homogenization for biochemical assays.
(§5) Mouse brains were resuspended in 10 volumes of 0.4% DEA (diethylamine)/50 mM NaCl pH 10 (for non-transgenic animals) or 0.1% 3-[(3-cholamidopropyl)-dimethyl-ammonio]-1-propanesulfonate (CHAPS) in tris buffered saline (TBS) (for transgenic animals) containing protease inhibitors (Roche-11873580001 or 04693159000 per gram of tissue, e.g. for 0.158 g brain, add 1.58 ml of 0.4% DEA. All samples were sonicated for 30 sec on ice at 20% power output (pulse mode). Homogenates were centrifuged at 221.300×g for 50 min. The resulting high speed supernatants were then transferred to fresh tubes and were optionally further purified before the next step. A portion of the supernatant was neutralized with 10% 0.5 M Tris-HCl and this was used to quantify Aβtotal.
(§6) The obtained supernatants were purified with Water Oasis HLB reverse phase columns (Waters Corp., Milford, Mass.) to remove non-specific immunoreactive material from the brain lysates prior subsequent Aβ detection. Using a vacuum manifold, all solutions were passed through the columns at a rate of approximately 1 ml per minute, so the vacuum pressure was adjusted accordingly throughout the procedure. Columns were preconditioned with 1 ml of 100% MeOH, before equilibration with 1 ml of H2O. Non-neutralized brain lysates were loaded onto the columns. The loaded samples were then washed twice with the first wash performed with 1 ml of 5% MeOH, and the second wash with 1 ml of 30% MeOH. Finally, the Aβ was eluted from the columns and into 100×30 mm glass tubes, with a solution of 90% MeOH with 2% NH4OH. […]

Aβtotal [3] = experiment: Method 2: Aβtotal Alphalisa in supernatant of SKNBE2 cells carrying APP 695-wild type (Table 7c); type: cell-based; conditions: Method 2, Alphalisa, overnight incubation
In short: as §1

Aβtotal [4] = experiment: In vivo efficacy: Aβtotal lowering in brain after single oral dose (Table 8); conditions: mouse brain soluble fraction, ELISA, compared to untreated animals
Source text: as §2, §3, §4, §5, §6

IC50 (Aβ42 [1]; Homo sapiens) [nM] | IC50 (Aβtotal [3]; Homo sapiens) [nM] | IC50 (Aβ42 [1]) [nM] | IC50 (Aβtotal [3]) [nM] | SMILES | Aβ42 (% Ctrl)_Mean (Aβ42 [2]) [% Ctrl] | Aβtotal (% Ctrl)_Mean (Aβtotal [4]) [% Ctrl]
1740 | > 10000 | – | – | Cc1ncoc1-c1ccc(Nc2cccc3c2nc(-c2ccc(F)cc2)n3C)nc1 [Compound 10] | 106 | 109
363 | > 10000 | – | – | COc1cc(Nc2cccc3c2nc(CCC(F)(F)F)n3C)ccc1-c1ocnc1C [Compound 11] | 91 | 99
35 | 7760 | – | – | COc1cc(Nc2cccc3c2nc(-c2ccc(F)cc2)n3C)ccc1-c1ocnc1C [Compound 12] | 56 | 101
16 | 8710 | – | – | COc1cc(Nc2cccc3c2nc(-c2ccc(F)cc2)n3C)ccc1-c1cnc(C)o1 [Compound 16] | 58 | 95
166 | > 10000 | – | – | Cc1ncc(-c2ccc(Nc3nccc4c3nc(-c3ccc(F)cc3)n4C)cc2F)o1 [Compound 17] | 106 | 109
20 | 6460 | – | – | Cc1ncc(-c2ccc(Nc3cccc4c3nc(-c3ccc(F)cc3)n4C(C)C)cn2)o1 [Compound 18] | 54 | 94
– | – | 14 | > 10000 | COc1cccc(-c2nc3c(Nc4ccc(-c5cnc(C)o5)nc4)cc(F)cc3n2C)c1 [Compound 105] | 104 | 96
– | – | 7410 | > 10000 | COc1cc(Nc2nc(C(F)(F)F)cn3cc(C)nc23)ccc1-c1cnc(C)o1 [Compound 170] | 99 | 99
– | – | 41 | > 10000 | COc1cc(Nc2cncc3c2nc(-c2ccc(F)cc2)n3C)ccc1-c1cnc(C)o1 [Compound 186] | 52 | 82
– | – | 282 | > 10000 | COc1cc(Nc2cc(C(F)(F)F)nn3cc(C)nc23)ccc1-c1cnc(C)o1 [Compound 195] | 89 | 99
